Experiments:
[1] = tested on: oligo-1: d(CGCGAATTCGCG)2; test: UV thermal denaturation; format: binding
[2] = tested on: oligo-1: d(CGCGAATTCGCG)2; test: Fluorescence titration; format: binding; conditions: 20 °C, pH 7.2
A549/ATCC = test: NCI-60 SRB growth assay; format: cell-based, human
EKVX = test: NCI-60 SRB growth assay; format: cell-based, human
HOP-62 = test: NCI-60 SRB growth assay; format: cell-based, human; conditions: HOP-62
NCI-H522 = test: NCI-60 SRB growth assay; format: cell-based, human
COLO 205 = test: NCI-60 SRB growth assay; format: cell-based, human
HCT-116 = test: NCI-60 SRB growth assay; format: cell-based, human
KM12 = test: NCI-60 SRB growth assay; format: cell-based, human
SF-539 = test: NCI-60 SRB growth assay; format: cell-based, human
SNB-75 = test: NCI-60 SRB growth assay; format: cell-based, human
SK-MEL-2 = test: NCI-60 SRB growth assay; format: cell-based, human; conditions: SK-MEL-2
UACC-257 = test: NCI-60 SRB growth assay; format: cell-based, human
UACC-62 = test: NCI-60 SRB growth assay; format: cell-based, human
OVCAR-5 = test: NCI-60 SRB growth assay; format: cell-based, human
OVCAR-8 = test: NCI-60 SRB growth assay; format: cell-based, human; conditions: OVCAR-8
A498 = test: NCI-60 SRB growth assay; format: cell-based, human
CAKI-1 = test: NCI-60 SRB growth assay; format: cell-based, human
PC-3 = test: NCI-60 SRB growth assay; format: cell-based, human
DU-145 = test: NCI-60 SRB growth assay; format: cell-based, human
MCF7 = test: NCI-60 SRB growth assay; format: cell-based, human
HS 578T = test: NCI-60 SRB growth assay; format: cell-based, human
BT-549 = test: NCI-60 SRB growth assay; format: cell-based, human; conditions: BT-549
MDA-MB-468 = test: NCI-60 SRB growth assay; format: cell-based, human; conditions: MDA-MB-468
Hu Topo I = biological target: T1, Hu Topo I (Homo sapiens, UniProt P11387); test: Plasmid DNA relaxation assay
T1 sequence (P11387 1-765): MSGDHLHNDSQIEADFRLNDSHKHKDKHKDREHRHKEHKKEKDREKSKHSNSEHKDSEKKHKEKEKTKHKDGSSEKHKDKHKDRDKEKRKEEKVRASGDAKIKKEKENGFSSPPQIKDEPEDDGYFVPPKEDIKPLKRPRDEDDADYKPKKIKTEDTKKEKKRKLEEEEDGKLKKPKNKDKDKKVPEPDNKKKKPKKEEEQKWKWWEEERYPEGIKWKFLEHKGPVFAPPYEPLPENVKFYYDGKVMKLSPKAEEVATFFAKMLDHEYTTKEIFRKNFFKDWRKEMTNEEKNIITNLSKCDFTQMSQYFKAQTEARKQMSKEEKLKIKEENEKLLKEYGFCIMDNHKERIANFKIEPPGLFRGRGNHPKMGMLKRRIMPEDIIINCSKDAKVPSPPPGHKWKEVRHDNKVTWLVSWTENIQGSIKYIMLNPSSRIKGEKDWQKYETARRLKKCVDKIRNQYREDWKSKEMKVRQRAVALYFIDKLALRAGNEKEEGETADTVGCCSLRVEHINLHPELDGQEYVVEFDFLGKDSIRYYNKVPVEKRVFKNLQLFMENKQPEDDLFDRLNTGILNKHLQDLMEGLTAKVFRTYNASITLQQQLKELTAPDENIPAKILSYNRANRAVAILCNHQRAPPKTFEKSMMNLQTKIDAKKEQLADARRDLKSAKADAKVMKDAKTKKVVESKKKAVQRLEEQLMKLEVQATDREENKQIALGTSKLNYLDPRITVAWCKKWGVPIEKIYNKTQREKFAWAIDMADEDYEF

CCCCN1CCN(c2ccc3[nH]c(-c4ccc5[nH]c(-c6ccc(OCC)c(OCC)c6)nc5c4)nc3c2)CC1 [12a, 5-(4-Butylpiperazin-1-yl)-2-(2-(3,4-diethoxyphenyl)-1H-benzo[d]imidazol-5-yl)-1H-benzo[d]imidazole]
ΔTm ([1]; r = 0.5): 2 °C
Tm ([1]; r = 0.5, oligo 2.5 μM): 56.7 °C
Tm ([1]; r = 1): 57.7 °C
ΔTm ([1]; r = 1): 3 °C
Tm ([1]; r = 1.5): 58.7 °C
ΔTm ([1]; r = 1.5): 4 °C
Tm ([1]; r = 2.0): 61.7 °C
ΔTm ([1]; r = 2.0): 7 °C
Ka binding affinity with oligo-1 [2]: 1 × 10^7 M^–1
TGI (A549/ATCC; A549/ATCC): 2.93 µM
GI50 (A549/ATCC; Homo sapiens, A549): 1180 nM
TGI (EKVX): 3.18 µM
GI50 (EKVX; Homo sapiens): 1380 nM
TGI (HOP-62): 3.40 µM
GI50 (HOP-62; Homo sapiens): 1810 nM
GI50 (NCI-H522; Homo sapiens, NCI-H522): 1200 nM
CC50 (NCI-H522; Homo sapiens, NCI-H522, read-out: LC50): > 100 µM
TGI (NCI-H522; NCI–H522): 3.97 µM
TGI (COLO 205; COLO 205): 1.52 µM
GI50 (COLO 205; Homo sapiens, COLO 205): 230 nM
CC50 (COLO 205; Homo sapiens, COLO 205, read-out: LC50): 6.18 µM
TGI (HCT-116; HCT-116): 1.66 µM
GI50 (HCT-116; Homo sapiens, HCT-116): 430 nM
CC50 (HCT-116; Homo sapiens, HCT-116, read-out: LC50): 4.3 µM
GI50 (KM12; Homo sapiens, KM12): 1420 nM
CC50 (KM12; Homo sapiens, KM12, read-out: LC50): 6.28 µM
TGI (KM12; KM12): 2.99 µM
GI50 (SF-539; Homo sapiens, SF-539): 1260 nM
CC50 (SF-539; Homo sapiens, SF-539, read-out: LC50): 5.2 µM
TGI (SF-539; SF-539): 2.56 µM
GI50 (SNB-75; Homo sapiens, SNB-75): 650 nM
CC50 (SNB-75; Homo sapiens, SNB-75, read-out: LC50): 4.54 µM
TGI (SNB-75; SNB-75): 2.01 µM
GI50 (SK-MEL-2; Homo sapiens): 1680 nM
TGI (SK-MEL-2): 3.66 µM
GI50 (UACC-257; Homo sapiens, UACC-257): 1210 nM
CC50 (UACC-257; Homo sapiens, UACC-257, read-out: LC50): > 100 µM
TGI (UACC-257; UACC-257): 10.5 µM
GI50 (UACC-62; Homo sapiens, UACC-62): 680 nM
CC50 (UACC-62; Homo sapiens, UACC-62, read-out: LC50): 5.42 µM
TGI (UACC-62; UACC-62): 2.18 µM
GI50 (OVCAR-5; Homo sapiens, OVCAR-5): 1900 nM
CC50 (OVCAR-5; Homo sapiens, OVCAR-5, read-out: LC50): 6.08 µM
TGI (OVCAR-5; OVCAR-5): 3.40 µM
GI50 (OVCAR-8; Homo sapiens): 890 nM
TGI (OVCAR-8): 3.06 µM
TGI (A498; A498): 2.47 µM
GI50 (A498; Homo sapiens, A498): 1180 nM
CC50 (A498; Homo sapiens, A498, read-out: LC50): 5.16 µM
TGI (CAKI-1; CAKI-1): 2.52 µM
GI50 (CAKI-1; Homo sapiens, CAKI-1): 1040 nM
CC50 (CAKI-1; Homo sapiens, CAKI-1, read-out: LC50): 6.12 µM
GI50 (PC-3; Homo sapiens, PC-3): 1080 nM
CC50 (PC-3; Homo sapiens, PC-3, read-out: LC50): 5.49 µM
TGI (PC-3; PC-3): 2.44 µM
TGI (DU-145; DU-145): 2.21 µM
GI50 (DU-145; Homo sapiens, DU-145): 1000 nM
CC50 (DU-145; Homo sapiens, DU-145, read-out: LC50): 4.88 µM
TGI (MCF7): 1.42 µM
GI50 (MCF7; Homo sapiens): 190 nM
TGI (HS 578T; HS578T): 3.90 µM
GI50 (HS 578T; Homo sapiens, Hs-578T): 1540 nM
TGI (BT-549): 3.07 µM
GI50 (BT-549; Homo sapiens): 1550 nM
GI50 (MDA-MB-468; Homo sapiens): 1270 nM
TGI (MDA-MB-468): 3.09 µM
IC90 (Hu Topo I): 152 µM

Reference: publication PMC8793051 (ACS Omega, 2022)
